Measured values reported in patent US12275731B2, “Azaindole inhibitors of wild-type and mutant forms of LRRK2” (DANA-FARBER CANCER INSTITUTE, INC., priority 2018, dated 2025).

Key:
Test in all cases: KinomeScan profiling
Format in all cases: binding
[1] = molecular target: T1, PRKCI (Homo sapiens, UniProt P41743); details: read-out: % control
T1 sequence (P41743 1-596): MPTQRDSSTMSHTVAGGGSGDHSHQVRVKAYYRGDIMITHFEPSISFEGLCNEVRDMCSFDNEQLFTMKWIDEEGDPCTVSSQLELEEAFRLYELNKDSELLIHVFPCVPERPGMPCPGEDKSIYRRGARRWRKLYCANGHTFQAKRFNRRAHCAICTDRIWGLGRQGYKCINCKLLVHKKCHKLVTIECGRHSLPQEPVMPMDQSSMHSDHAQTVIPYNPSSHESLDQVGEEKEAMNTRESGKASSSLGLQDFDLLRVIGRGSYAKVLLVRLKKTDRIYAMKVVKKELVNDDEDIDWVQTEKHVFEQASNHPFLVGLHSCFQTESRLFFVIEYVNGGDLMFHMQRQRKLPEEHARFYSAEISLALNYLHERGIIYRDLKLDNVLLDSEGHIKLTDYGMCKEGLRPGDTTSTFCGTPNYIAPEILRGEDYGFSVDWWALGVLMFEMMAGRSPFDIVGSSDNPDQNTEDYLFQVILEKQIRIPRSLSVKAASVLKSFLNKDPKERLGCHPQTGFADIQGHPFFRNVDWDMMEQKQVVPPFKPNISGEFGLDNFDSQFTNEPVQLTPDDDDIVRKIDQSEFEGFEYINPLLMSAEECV
Procedure, shortened: (§1)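 1 μM cpd in DMSO; 468-kinase panel; readout RLU. % ctrl = (cpd − pos ctrl)/(neg ctrl − pos ctrl) ×100. Pos ctrl = 0%, DMSO = 100%. Hit cut-off <35%.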

[2] = molecular target: CHEK2 (Homo sapiens, UniProt O96017); details: CHEK2, 1 μM; read-out: % control
CHEK2, sequence (O96017 whole entry): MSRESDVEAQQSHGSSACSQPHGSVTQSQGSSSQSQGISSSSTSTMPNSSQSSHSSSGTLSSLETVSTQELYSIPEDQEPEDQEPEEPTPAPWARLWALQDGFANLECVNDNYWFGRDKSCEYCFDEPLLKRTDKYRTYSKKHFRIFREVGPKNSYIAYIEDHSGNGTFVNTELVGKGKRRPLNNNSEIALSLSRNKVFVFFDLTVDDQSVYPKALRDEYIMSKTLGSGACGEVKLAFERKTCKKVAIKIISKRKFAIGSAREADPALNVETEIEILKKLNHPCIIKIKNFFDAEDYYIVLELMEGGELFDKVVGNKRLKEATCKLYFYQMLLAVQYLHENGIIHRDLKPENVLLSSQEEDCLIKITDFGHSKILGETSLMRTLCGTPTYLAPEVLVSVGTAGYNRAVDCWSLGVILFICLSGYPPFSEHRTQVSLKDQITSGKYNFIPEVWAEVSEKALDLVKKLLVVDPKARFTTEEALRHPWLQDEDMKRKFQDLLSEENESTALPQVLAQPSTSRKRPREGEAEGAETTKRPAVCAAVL
Procedure, shortened: as §1

[3] = molecular target: PCTK3 (Homo sapiens, UniProt Q07002); details: PCTK3, 1 μM; read-out: % control
Procedure, shortened: as §1

[4] = molecular target: T2, SGK3 (Homo sapiens, UniProt Q96BR1); details: SGK3, 1 μM; read-out: % control
T2 construct: purchased KinomeScan® (panel service)
T2 sequence (Q96BR1 1-496): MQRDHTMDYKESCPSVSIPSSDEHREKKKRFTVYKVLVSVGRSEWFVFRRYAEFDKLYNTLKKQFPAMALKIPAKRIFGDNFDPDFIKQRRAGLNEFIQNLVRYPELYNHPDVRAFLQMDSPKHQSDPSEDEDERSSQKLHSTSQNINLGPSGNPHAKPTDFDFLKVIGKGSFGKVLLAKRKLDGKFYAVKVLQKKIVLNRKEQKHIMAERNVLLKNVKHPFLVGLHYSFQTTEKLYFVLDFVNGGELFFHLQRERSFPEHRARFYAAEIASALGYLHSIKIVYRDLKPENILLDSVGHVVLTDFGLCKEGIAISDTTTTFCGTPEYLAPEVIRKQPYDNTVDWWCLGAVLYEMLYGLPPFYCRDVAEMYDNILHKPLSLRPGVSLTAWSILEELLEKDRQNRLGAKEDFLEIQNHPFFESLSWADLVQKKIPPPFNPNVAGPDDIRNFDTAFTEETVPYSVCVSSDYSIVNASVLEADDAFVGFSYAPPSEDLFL
Procedure, shortened: as §1

[5] = molecular target: T3, PIM3 (Homo sapiens, UniProt Q86V86); details: PIM3, 1 μM; read-out: % control
T3 construct: purchased KinomeScan® (panel service)
Procedure, shortened: as §1

[6] = molecular target: T4, JAK1(JH2domain-pseudokinase) (Homo sapiens, UniProt P23458); details: read-out: % control
T4 construct: JAK1(JH2domain-pseudokinase); purchased KinomeScan®
T4 sequence (P23458 583-855 limits assumed): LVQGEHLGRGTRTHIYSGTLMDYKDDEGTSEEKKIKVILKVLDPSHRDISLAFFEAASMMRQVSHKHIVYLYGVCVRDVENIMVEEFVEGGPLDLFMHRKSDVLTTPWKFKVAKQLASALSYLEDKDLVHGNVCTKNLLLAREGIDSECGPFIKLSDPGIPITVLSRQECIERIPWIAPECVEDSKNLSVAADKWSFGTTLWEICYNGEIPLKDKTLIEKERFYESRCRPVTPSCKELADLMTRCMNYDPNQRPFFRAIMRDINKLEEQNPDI
Procedure, shortened: as §1

[7] = molecular target: T5, ABL1(E255K)-phosphorylated (Homo sapiens, UniProt P00519, E255K); details: read-out: % control
T5 construct: purchased KinomeScan®
T5 sequence (P00519 whole entry E255K): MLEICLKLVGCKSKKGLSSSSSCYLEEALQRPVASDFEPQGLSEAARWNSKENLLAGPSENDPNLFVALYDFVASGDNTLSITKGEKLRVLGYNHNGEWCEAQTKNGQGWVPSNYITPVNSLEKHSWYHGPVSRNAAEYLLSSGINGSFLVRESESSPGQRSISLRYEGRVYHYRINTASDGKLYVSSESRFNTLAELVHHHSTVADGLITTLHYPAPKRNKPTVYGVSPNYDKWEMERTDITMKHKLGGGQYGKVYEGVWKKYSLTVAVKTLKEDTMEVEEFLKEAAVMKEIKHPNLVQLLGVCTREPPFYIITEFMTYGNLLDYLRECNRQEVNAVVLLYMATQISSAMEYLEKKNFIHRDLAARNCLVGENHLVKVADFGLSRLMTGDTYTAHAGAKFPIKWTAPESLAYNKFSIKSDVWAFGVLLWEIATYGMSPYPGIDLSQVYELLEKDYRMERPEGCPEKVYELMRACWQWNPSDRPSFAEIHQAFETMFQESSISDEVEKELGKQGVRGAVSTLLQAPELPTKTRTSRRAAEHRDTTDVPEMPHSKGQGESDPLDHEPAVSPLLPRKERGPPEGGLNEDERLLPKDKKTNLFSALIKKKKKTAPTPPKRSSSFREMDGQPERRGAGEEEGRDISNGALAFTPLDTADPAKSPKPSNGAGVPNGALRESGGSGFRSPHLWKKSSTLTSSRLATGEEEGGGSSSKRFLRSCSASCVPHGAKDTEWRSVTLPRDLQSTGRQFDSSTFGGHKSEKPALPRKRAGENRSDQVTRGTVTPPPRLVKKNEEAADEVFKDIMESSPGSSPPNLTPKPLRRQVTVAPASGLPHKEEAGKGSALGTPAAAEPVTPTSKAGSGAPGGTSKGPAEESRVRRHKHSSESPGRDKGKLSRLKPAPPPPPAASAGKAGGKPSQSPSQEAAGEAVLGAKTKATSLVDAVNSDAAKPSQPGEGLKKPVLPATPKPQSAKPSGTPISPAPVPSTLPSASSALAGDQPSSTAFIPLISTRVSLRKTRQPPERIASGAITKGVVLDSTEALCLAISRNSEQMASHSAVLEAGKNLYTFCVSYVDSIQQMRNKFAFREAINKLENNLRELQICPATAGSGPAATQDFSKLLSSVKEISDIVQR
Procedure, shortened: as §1

[8] = molecular target: PDGFRA (Homo sapiens, UniProt P16234); details: read-out: % control
PDGFRA, sequence (P16234 24-1089): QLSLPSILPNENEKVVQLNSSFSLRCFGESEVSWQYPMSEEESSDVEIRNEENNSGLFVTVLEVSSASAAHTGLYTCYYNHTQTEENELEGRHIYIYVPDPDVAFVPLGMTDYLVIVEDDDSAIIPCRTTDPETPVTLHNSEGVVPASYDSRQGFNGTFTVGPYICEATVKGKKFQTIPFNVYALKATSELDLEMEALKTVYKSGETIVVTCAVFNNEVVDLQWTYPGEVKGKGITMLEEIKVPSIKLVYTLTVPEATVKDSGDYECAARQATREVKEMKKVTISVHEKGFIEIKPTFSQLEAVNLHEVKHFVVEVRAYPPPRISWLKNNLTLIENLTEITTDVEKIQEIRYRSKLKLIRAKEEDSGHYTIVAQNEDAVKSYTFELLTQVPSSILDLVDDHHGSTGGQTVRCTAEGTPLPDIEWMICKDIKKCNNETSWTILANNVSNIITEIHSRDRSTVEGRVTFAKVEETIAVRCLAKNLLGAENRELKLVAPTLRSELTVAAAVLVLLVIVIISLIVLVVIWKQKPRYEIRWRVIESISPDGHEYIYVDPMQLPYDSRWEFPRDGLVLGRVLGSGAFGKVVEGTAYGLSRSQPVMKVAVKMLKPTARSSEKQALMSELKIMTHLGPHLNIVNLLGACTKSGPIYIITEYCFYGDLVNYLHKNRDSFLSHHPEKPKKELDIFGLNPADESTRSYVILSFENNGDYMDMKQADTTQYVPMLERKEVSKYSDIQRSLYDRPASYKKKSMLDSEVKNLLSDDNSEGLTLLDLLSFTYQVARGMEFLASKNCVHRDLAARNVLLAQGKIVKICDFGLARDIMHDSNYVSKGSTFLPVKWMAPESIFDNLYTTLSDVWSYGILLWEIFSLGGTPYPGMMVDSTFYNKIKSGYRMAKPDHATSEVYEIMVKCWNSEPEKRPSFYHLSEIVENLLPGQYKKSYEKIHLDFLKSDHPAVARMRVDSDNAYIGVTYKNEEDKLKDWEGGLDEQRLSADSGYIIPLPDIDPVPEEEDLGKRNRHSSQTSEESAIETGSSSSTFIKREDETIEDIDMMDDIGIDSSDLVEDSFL
Procedure, shortened: as §1

[9] = molecular target: T6, TLK1 (Homo sapiens, UniProt Q9UKI8); details: TLK1, 1 μM; read-out: % control
T6 sequence (Q9UKI8 1-766): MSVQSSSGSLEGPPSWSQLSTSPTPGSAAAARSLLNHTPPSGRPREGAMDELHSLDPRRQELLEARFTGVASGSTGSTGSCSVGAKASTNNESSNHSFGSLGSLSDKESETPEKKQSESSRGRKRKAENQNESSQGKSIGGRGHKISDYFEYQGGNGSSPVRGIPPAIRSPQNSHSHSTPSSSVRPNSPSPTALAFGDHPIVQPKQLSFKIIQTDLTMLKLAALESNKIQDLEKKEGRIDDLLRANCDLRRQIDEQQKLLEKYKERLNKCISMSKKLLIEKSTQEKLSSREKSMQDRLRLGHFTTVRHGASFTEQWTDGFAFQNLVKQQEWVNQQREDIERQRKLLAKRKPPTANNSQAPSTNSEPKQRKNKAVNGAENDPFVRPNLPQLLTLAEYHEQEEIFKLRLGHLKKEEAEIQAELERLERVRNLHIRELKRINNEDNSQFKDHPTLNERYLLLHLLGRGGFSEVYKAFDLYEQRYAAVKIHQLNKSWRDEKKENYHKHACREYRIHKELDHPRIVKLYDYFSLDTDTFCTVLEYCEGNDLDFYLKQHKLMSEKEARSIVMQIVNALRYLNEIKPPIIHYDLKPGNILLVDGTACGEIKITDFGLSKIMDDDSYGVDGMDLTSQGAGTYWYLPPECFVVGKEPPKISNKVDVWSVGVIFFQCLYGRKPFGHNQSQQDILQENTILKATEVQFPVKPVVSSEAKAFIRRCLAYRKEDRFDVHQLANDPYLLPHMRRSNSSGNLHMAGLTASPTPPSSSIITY
Procedure, shortened: as §1

[10] = molecular target: HCK (Homo sapiens, UniProt P08631); details: read-out: % control
HCK, sequence (P08631 whole entry): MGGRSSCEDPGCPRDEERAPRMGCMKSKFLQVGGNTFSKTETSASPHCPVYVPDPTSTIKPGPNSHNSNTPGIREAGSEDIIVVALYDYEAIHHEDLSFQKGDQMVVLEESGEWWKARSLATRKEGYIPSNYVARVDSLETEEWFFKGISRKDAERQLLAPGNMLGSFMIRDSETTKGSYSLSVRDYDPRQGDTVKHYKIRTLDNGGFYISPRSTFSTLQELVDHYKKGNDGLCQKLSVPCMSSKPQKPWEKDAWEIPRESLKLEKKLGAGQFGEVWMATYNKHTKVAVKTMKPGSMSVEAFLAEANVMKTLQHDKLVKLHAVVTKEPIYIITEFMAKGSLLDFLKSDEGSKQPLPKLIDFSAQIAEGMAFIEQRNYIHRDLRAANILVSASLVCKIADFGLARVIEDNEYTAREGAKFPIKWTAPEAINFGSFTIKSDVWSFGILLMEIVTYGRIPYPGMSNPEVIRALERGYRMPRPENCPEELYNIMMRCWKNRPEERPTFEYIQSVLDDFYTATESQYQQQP
Procedure, shortened: as §1

[11] = molecular target: GRK4 (Homo sapiens, UniProt P32298); details: GRK4, 1 μM; read-out: % control
GRK4, sequence (P32298 whole entry): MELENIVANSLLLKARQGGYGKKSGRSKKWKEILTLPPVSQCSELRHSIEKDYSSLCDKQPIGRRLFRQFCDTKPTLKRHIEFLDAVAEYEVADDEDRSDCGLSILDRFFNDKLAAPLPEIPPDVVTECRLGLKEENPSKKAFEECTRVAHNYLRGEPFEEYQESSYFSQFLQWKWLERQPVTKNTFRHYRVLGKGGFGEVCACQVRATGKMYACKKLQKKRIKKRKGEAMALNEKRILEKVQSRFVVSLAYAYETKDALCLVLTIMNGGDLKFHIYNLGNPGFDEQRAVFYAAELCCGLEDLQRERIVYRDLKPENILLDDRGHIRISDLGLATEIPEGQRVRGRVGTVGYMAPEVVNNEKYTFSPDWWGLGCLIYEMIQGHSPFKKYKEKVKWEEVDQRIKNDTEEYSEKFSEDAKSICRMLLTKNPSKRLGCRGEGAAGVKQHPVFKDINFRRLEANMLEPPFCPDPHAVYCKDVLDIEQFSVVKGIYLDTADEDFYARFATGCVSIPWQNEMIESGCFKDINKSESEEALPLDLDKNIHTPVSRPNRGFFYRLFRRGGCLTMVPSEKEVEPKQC
Procedure, shortened: as §1

[12] = molecular target: WEE2 (Homo sapiens, UniProt P0C1S8); details: WEE2, 1 μM; read-out: % control
WEE2, sequence (P0C1S8 whole entry): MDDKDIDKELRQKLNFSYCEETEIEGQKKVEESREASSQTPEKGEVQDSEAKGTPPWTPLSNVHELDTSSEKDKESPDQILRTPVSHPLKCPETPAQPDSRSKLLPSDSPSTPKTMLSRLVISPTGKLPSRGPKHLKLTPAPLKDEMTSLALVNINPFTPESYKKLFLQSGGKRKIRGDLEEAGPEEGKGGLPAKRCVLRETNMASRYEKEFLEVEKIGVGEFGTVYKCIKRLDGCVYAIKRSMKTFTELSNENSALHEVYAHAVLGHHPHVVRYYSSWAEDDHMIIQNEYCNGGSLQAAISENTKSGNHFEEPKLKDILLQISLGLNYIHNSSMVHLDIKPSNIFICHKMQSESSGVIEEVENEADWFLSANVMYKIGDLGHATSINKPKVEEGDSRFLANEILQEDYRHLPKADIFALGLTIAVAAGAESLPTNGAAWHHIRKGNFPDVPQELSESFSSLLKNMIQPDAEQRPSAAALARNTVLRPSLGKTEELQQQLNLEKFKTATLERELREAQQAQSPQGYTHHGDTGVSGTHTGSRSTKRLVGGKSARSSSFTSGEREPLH
Procedure, shortened: as §1

| Compound | remaining binding at 1 µM [1] | remaining binding at 1 µM [2] | remaining binding at 1 µM [3] | remaining binding at 1 µM [4] | remaining binding at 1 µM [5] | remaining binding at 1 µM [6] | remaining binding at 1 µM [7] | remaining binding at 1 µM [8] | remaining binding at 1 µM [9] | remaining binding at 1 µM [10] | remaining binding at 1 µM [11] | remaining binding at 1 µM [12] |
| --- | --- | --- | --- | --- | --- | --- | --- | --- | --- | --- | --- | --- |
| CNc1c(-c2cnn([C@H]3CCN(C(C)=O)C[C@@H]3F)c2)cnc2[nH]cc(Cl)c12 [Compound 77, 1-((3S,4S)-4-(4-(3-chloro-4-(methylamino)-1H-pyrrolo[2,3-b]pyridin-5-yl)-1H-pyrazol-1-yl)-3-fluoropiperidin-1-yl)ethan-1-one] | 67% | 56% | 100% | 37% | 99% | 57% | 73% | 11% | 95% | 100% | 21% | 95% |
| CNc1c(-c2ccc(C(=O)N3CCC(N4CCOCC4)CC3)cc2)cnc2[nH]cc(Cl)c12 [Compound 96, (4-(3-chloro-4-(methylamino)-1H-pyrrolo[2,3-b]pyridin-5-yl)phenyl)(4-morpholinopiperidin-1-yl)methanone] | 69% | 22% | 100% | 48% | 100% | 94% | 92% | 45% | 95% | 100% | 28% | 100% |
| O=C(c1ccc(-c2cnc3[nH]cc(Cl)c3c2NC2CCCC2)cc1)N1CCC(N2CCOCC2)CC1 [Compound 101, (4-(3-chloro-4-(cyclopentylamino)-1H-pyrrolo[2,3-b]pyridin-5-yl)phenyl)(4-morpholinopiperidin-1-yl)methanone] | 100% | 92% | 96% | 96% | 96% | 47% | 100% | 92% | 90% | 96% | 14% | 94% |
